Consider 1 compound from patent EP2966079B1, “PYRIDOPYRIMIDINE OR PYRIMIDOPYRIMIDINE COMPOUND, PREPARATION METHOD, PHARMACEUTICAL COMPOSITION AND USE THEREOF” (Shanghai Institute of Materia Medica, Chinese Academy of …, priority 2013, dated 2014).

One assay concerns the target mTOR (Homo sapiens, UniProt P42345). As to the kind of experiment: mTOR Kinase test (LANCE Ultra, ULight-4EBP1 substrate). Format: biochemical. As to conditions: 1.7 nM mTOR, 50 nM ULight-4EBP1, 100 µM ATP, 1.5 hours reaction.
A further assay concerns human brain glioma U87MG. The assay can be described thus: Cell proliferation assay (MTS method), U87MG. Format: cell-based. The conditions noted are these: U-87 MG, 72 h, U87MG cells, cultured with compound for 3 days. On the procedure: (§1) Cell proliferation assay was based on two types of cell lines, i.e., human brain glioma U87MG and human prostate cancer LNCap, both of which were from ATCC. U87MG and LNCap contain PTEN gene deletion, and belongs to mTOR signal-dependent tumor cells. Cell culture media and related reagents were from GIBCO. U87MG cells were cultured in a MEM complete medium (containing 10% fetal bovine serum, 100 U/mL penicillin and 100 µg/mL streptomycin). […] Cells/compound was cultured for 3 days, and MTS method was used to test cell proliferation. MTS and PMS were purchased from Sigma company, a stock solution of MTS/PMS (20:1) was added into the test cells with 20 µL/well. After a suitable time of incubation, the proliferation assay results was recorded on a 96 well plate microplate reader. Relative cell viability% = (A490valueofadministeredgroup−lightvalueoftheblankgroup)/(lightvalueofDMSOgroup−lightvalueofblankgroup) × 100%. [formula]
(§2) The experimental data were processed with Microsoft Office Excel and Graphpad PRISM 5 to calculate IC50.

Assay [1] relates to human prostate cancer LNCap. As to the kind of experiment: Cell proliferation assay (MTS method), LNCap. The class given is cell-based. As to conditions: 72 h, LNCap cells, cultured with compound for 3 days. Here is the method:
as §1, §2

Chain of mTOR (P42345 1362-2549): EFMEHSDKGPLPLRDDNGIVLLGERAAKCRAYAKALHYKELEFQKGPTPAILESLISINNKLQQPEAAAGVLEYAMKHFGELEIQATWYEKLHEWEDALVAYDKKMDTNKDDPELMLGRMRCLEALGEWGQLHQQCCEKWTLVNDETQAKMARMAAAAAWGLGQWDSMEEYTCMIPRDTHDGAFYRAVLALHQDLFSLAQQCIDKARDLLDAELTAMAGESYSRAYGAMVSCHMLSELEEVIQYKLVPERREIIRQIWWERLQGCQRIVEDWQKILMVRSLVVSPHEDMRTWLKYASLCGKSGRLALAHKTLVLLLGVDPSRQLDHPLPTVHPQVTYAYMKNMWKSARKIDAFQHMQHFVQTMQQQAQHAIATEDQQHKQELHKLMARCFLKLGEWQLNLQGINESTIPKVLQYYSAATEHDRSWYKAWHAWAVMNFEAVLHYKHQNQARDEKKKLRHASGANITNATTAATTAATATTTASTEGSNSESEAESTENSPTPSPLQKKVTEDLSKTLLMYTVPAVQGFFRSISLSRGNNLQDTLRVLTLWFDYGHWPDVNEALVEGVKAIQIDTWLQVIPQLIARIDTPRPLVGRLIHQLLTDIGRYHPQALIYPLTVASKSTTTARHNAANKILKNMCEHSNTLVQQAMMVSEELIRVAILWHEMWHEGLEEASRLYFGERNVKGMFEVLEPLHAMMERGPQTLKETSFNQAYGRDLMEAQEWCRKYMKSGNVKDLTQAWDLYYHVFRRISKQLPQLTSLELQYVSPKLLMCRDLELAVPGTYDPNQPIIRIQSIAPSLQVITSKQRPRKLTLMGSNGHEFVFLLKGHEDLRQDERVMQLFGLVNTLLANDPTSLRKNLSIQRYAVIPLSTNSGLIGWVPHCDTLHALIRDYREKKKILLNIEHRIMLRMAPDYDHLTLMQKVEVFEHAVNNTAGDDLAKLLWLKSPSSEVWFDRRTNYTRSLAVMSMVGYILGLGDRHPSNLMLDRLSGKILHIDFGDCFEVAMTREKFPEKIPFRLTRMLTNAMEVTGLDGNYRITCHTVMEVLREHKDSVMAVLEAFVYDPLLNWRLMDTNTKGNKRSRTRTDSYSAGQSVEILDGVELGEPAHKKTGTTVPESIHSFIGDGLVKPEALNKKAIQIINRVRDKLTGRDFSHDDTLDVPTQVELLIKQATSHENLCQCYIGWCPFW

Regarding `COc1ccc(-c2cc3nc(N4C[C@@H](C)O[C@@H](C)C4)nc(N4C[C@@H](C)O[C@@H](C)C4)c3cn2)cc1CO` [Compound 17, (5-(2,4-di((2S,6R)-2,6-dimethyl)pyrido[4,3-d]pyrimidin-7-yl)-2-methoxyphenyl)methanol], the IC50 (usually the concentration needed to halve the response being measured) against mTOR is more than 20 µM; in the assay with human brain glioma U87MG, more than 60 µM; in assay [1], 21.4 µM.
